# Reference: patent US12692221B2 (priority 2024, dated 2026)
# How the values were obtained:
# alpha2A (h) = biological target: T1, alpha2A (h) (Homo sapiens, UniProt P08913); experiment: Radioligand binding alpha2A (h) (antagonist radioligand), [^3H]RX 821002, CHO cells
# T1 construct: expressed in transfected cells; host or cells: CHO cells
# T1 sequence (P08913 1-465): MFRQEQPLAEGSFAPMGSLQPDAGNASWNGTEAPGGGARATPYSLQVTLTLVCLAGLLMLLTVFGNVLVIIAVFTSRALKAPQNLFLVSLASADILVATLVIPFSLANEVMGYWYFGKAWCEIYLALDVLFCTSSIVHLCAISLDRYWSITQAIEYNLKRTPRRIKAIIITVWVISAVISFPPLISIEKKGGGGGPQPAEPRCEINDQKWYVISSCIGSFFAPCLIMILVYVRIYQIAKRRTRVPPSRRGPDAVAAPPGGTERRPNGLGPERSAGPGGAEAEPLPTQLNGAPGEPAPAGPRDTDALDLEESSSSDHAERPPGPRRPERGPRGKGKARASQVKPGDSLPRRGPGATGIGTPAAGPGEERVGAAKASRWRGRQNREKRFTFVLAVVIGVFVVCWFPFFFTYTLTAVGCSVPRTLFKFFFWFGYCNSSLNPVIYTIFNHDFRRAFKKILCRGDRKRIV
# Experimental: (§1) Methods—Binding Assays: In vitro binding assays were performed using human recombinant receptors expressed in mammalian cell lines. Receptors were expressed in either HEK-293 or CHO cells depending on the target, and assay conditions (radioligand, concentration, nonspecific competitor, temperature, and incubation time) were optimized for each receptor. All assays were conducted in triplicate, and specific binding was quantified by scintillation counting as the detection method for each listed assay.
# (§2) Specific binding was expressed as a percentage of control-specific binding, and percent inhibition was calculated using the formula in Ex. 8 above. Half-maximal inhibitory concentrations (IC50) were determined by non-linear regression analysis of the inhibition curves using the Hill equation (see Ex. 8). Inhibition constants (Ki) were calculated using the Cheng-Prusoff equation (see Ex. 8). KD values used in these calculations had been previously established for each receptor under the assay conditions (see Table 6). Data analysis was performed using software developed at Cerep and validated against SigmaPlot 4.0 for Windows.
# Lck kinase (h) = biological target: T2, Lck kinase (h) (Homo sapiens, UniProt P06239); experiment: Enzyme assay Lck kinase (h), LANCE; type: biochemical
# T2 construct: host or cells: insect cells
# Experimental: Methods—Enzyme and Uptake Assays: In vitro enzyme and uptake assays were conducted by Eurofins Discovery using human recombinant enzymes expressed in various mammalian and insect cell lines. Enzymatic activity was measured using appropriate substrates or tracers under conditions optimized for each target, as detailed in Table 7. Reactions were incubated at room temperature for a defined duration and terminated according to established protocols. The measured components (either enzymatic products or remaining substrate) were quantified using fluorimetry, photometry, scintillation counting, or LANCE technology, depending on the assay. Assay-specific parameters, including substrate identity, cell line source, incubation time, and detection method, are provided in Table 7.
# All measurements were performed in technical replicates to ensure reproducibility and data quality.
# Results were expressed both as a percentage of control-specific activity and as percent inhibition of control-specific activity. Percent activity was calculated as (measured specific activity/control specific activity)×100, and percent inhibition as 100−[(measured specific activity/control specific activity)×100], based on values obtained in the presence of test compounds. IC50 and EC50 values, along with Hill coefficients (nH), were determined by nonlinear regression analysis of inhibition or concentration-response curves generated from mean replicate values. Hill curve fitting was performed as previously described using software developed at Cerep and validated against SigmaPlot® 4.0 for Windows® (© 1997 by SPSS Inc.).
# [1] = biological target: T3, Potassium Channel hERG (human) (Homo sapiens, UniProt Q12809); experiment: Radioligand binding Potassium Channel hERG (human), [^3H]Dofetilide, HEK-293 cells; conditions: Potassium Channel hERG(h) ([3H] Dofetilide)
# T3 construct: expressed in transfected cells; host or cells: HEK-293 cells
# Experimental: as §1, §2
# M1 (h) = biological target: T4, M1 (h) (Homo sapiens, UniProt P11229); experiment: Radioligand binding M1 (h) (antagonist radioligand), [^3H]pirenzepine, CHO cells
# T4 construct: expressed in transfected cells; host or cells: CHO cells
# T4 sequence (P11229 1-460): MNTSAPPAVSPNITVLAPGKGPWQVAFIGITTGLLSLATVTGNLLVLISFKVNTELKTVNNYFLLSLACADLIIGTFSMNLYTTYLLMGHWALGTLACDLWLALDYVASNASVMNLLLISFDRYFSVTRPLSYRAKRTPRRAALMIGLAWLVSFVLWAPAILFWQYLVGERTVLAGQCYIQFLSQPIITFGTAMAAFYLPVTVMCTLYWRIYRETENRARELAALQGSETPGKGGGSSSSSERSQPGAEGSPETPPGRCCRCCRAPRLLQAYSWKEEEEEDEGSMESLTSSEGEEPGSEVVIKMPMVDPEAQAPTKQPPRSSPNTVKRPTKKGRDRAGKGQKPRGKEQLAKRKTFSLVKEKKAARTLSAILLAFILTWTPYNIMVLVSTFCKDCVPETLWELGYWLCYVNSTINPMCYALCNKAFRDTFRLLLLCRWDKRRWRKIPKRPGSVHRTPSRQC
# Experimental: as §1, §2
# 5-HT2B = 5-HT2B (Homo sapiens, UniProt P41595); experiment: IP-One HTRF IP-1 accumulation functional assay, 5-HT2B/HEK293; type: cell-based; design: host or cells: HEK293
# Experimental: Methods (5-HT2B IP-One Functional Activity Assays): Intracellular accumulation of IP-1 was measured using an IP-One HTRF) assay kit (Cat. #62IPAPEJ, Cisbio) at WuXi AppTec Co. Ltd. (Hong Kong) Discovery Biology Unit according to their standard protocols. Briefly, 5-HT2B/HEK293 were plated in a 384-well plate and incubated at 37° C. and 5% CO2 overnight. The reference compounds and screening compounds were 3.16-fold serially diluted in 100% DMSO for 10 points using Bravo. 70 nL of compounds were added to the cell plate using Echo555. Incubated for 60 minutes at 37° C. Added 3 μL of IP-1 d2 Reagent working solution and 3 μL of IP-1 Tb Cryptate Antibody working solution to all wells. The plates were incubated for 1 hour at room temperature and read on for fluorescence at 620 nm and 665 nm on an EnVision Multimode Plate Reader (PerkinElmer). The ratio of the acceptor and donor emission signals (665/620) were calculated for each individual well and substituted into the standard curve to obtain the log concentration of IP level. After converting to the antilog base IP-1, the average background control signal was subtracted from each well and values were normalized to the maximal response of 5-HT at 3 μM (100%). % MAX was calculated by taking the average normalized maximal response at the highest concentration tested. Data were analyzed using the four-parameter nonlinear regression curve-fitting function in GraphPad Prism 5 (GraphPad Software, San Diego, CA) to generate potency (EC50) values. Parameter constraint “Top=100” was used in the analysis of 5-HT2B IP-1. Represented plots show normalized IP-1 values versus compound concentrations; the corresponding numerical data are parameter estimates for the concentration-response curve using the 4-parameter nonlinear regression curve-fitting function in GraphPad Prism 10. “Top=100” parameter constraint was not enabled for the represented plot analysis.
# T3 sequence (Q12809 whole entry): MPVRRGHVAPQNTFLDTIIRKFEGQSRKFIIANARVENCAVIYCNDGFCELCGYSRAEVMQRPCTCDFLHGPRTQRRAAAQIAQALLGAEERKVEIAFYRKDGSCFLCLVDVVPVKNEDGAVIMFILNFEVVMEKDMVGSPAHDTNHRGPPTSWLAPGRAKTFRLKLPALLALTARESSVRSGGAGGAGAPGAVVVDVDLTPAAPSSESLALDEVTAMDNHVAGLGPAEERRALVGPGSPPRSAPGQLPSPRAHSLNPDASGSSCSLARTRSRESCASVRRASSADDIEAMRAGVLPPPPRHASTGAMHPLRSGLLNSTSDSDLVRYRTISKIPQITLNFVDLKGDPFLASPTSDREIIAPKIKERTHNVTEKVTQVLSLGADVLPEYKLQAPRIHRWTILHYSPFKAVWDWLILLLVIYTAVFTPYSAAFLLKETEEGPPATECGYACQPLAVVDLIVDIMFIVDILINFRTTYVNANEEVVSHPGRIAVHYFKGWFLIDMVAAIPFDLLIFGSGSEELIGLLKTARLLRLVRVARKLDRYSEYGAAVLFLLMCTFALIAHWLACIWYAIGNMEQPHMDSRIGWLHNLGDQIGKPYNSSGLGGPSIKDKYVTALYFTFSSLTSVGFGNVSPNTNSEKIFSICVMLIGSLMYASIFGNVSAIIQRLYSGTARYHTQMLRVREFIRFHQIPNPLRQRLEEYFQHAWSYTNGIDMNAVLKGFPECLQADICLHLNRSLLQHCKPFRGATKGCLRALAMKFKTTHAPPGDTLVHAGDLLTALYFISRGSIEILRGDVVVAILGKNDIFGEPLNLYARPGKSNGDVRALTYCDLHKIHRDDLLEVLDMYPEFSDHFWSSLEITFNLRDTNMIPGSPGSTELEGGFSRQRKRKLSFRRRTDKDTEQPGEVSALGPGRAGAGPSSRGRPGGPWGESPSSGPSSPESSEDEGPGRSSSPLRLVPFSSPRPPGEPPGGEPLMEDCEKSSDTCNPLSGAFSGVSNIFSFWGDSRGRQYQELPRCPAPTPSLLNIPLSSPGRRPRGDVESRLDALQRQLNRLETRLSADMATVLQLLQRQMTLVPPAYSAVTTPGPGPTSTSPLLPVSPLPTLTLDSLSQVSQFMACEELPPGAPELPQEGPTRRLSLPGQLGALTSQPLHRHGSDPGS
# Chain of 5-HT2B (P41595 whole entry): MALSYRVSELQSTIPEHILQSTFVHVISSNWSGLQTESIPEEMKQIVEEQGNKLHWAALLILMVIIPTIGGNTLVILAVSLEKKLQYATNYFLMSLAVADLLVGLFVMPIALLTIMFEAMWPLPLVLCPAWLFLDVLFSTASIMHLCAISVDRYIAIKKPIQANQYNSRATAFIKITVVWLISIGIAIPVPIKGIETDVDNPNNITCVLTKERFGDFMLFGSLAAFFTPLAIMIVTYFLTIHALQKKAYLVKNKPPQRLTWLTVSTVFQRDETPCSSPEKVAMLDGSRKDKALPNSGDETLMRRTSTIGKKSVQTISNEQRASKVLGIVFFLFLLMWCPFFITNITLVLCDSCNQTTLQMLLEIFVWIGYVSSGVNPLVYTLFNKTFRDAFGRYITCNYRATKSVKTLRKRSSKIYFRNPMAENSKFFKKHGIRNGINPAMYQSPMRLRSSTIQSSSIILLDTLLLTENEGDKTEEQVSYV
# T2 sequence (P06239 whole entry): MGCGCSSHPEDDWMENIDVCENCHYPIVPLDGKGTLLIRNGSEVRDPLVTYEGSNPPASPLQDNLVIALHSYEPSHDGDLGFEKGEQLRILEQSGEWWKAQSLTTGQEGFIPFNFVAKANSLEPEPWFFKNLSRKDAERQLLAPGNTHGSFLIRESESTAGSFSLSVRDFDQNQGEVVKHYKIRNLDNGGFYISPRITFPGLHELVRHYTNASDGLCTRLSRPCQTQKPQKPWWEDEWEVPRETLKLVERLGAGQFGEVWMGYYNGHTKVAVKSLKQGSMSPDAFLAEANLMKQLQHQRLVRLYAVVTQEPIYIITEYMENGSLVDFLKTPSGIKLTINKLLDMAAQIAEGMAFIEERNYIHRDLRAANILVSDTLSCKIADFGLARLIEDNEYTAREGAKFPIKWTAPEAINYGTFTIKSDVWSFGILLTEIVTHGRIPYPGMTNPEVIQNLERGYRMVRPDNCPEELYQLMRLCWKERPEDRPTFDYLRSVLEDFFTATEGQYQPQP
Compound,Mean Percent Inhibition of Control Specific Binding (alpha2A (h)) [%],Mean Percent Inhibition of Control Specific Binding (Lck kinase (h)) [%],Mean Percent Inhibition of Control Specific Binding [1] [%],Mean Percent Inhibition of Control Specific Binding (M1 (h)) [%],EC50 (5-HT2B) [µM]
"COCc1cc(CCN)c(O)cc1CC(C)C [2CiBu-2OH-5MM, 2-(2-aminoethyl)-5-isobutyl-4-(methoxymethyl)phenol]",79.4,12.8,9.7,4.9,–
"COCCc1cc(CCN)c(OC)cc1Br [Compound 2CB-5ME, reference compound]",73.0,23.3,8.5,55.4,0.131
"COCc1cc(CCN)c(OC)cc1Br [Compound 2CB-5MM, 2-(4-bromo-2-methoxy-5-(methoxymethyl)phenyl)ethan-1-amine]",80.2,5.9,13.9,43.4,0.0786
"COCc1cc(CCN)c(OC)cc1CC(C)C [Compound 2CiBu-5MM, 2-[4-isobutyl-2-methoxy-5-(methoxymethyl)phenyl]ethanamine]",88.5,−6.6,4.4,52.6,0.825
